≈ marks a conversion by molar mass, not a printed value. Like-named read-outs stand apart in the source and are kept apart here.
Experiments:
[1] = tested on: Staphylococcus aureus smith; assay: MIC on nutrient agar medium; type: cell-based
Source text: (§1) The compounds of formula I provided by the present invention are also characterized by their antimicrobial activity. Table 3 summarizes the minimum inhibitory concentrations (MIC) of representative compounds of the present invention against various microorganisms on a nutrient agar medium.

[2] = tested on: Microccus flavus FDA 16; assay: MIC on nutrient agar medium; type: cell-based
Source text: as §1

[3] = tested on: Bacillus subtilis PCI 219; assay: MIC on nutrient agar medium; type: cell-based; details: PCI219
Source text: as §1

[4] = tested on: Bacillus subtilis NRRB- 558; assay: MIC on nutrient agar medium; type: cell-based; details: NRRB558
Source text: as §1

[5] = tested on: Bacillus cereus ATCC 10702; assay: MIC on nutrient agar medium; type: cell-based; details: ATCC10702
Source text: as §1

[6] = tested on: Staphylococcus aureus FDA 209; assay: MIC on nutrient agar medium; type: cell-based; details: FDA209
Source text: as §1

[7] = tested on: Mycobacterium smegmatis ATCC 607; assay: MIC on nutrient agar medium; type: cell-based; details: Mycolicibacterium smegmatis, ATCC607
Source text: as §1

[8] = tested on: Escherichia coli NIHJ; assay: MIC on nutrient agar medium; type: cell-based
Source text: as §1

[9] = tested on: Candida albicans 3147; assay: MIC on nutrient agar medium; type: cell-based
Source text: as §1

[10] = tested on: Pseudomonas aeruginosa A3; assay: MIC on nutrient agar medium; type: cell-based
Source text: as §1

[11] = tested on: Salmonella typhi T - 63; assay: MIC on nutrient agar medium; type: cell-based; details: Salmonella enterica
Source text: as §1

[12] = tested on: Corynebacterium bovis 1810; assay: MIC on nutrient agar medium; type: cell-based
Source text: as §1

[13] = tested on: Klebsiella pneumonia PCI 602; assay: MIC on nutrient agar medium; type: cell-based; details: Klebsiella pneumoniae, PCI602
Source text: as §1

[14] = tested on: Microccus lysodeikticus IFQ 3333; assay: MIC on nutrient agar medium; type: cell-based
Source text: as §1

[15] = tested on: Shigella flexneri 46 JS 11811; assay: MIC on nutrient agar medium; type: cell-based; details: 46JS11811
Source text: as §1

[16] = tested on: Sarcina lutea PCI 1001; assay: MIC on nutrient agar medium; type: cell-based; details: Micrococcus luteus, PCI1001
Source text: as §1

[17] = tested on: Bacillus megatherium APF; assay: MIC on nutrient agar medium; type: cell-based
Source text: as §1

[18] = tested on: L1210 leukemia cells, DNA synthesis; assay: Inhibition of DNA synthesis (14C-thymidine incorporation) of L1210 cultivated leukemic cells; type: cell-based; details: Mus musculus, L1210, 1 h, 14C-thymidine, 60 minutes, 37° C.; for IC50: read-out: IC50 DNA synthesis; for IC90: 90% inhibition, read-out: IC90 DNA synthesis
Description: (§2) A. Inhibitory Effect on Growth, DNA Synthesis and RNA Synthesis of L1210 Cultivated Leukemic Cells of Mice
(§3) Separately, the above L1210 cultivated cells were suspended in a concentration of 5×10^5 cells/ml in an RPMI 1640 medium containing 10% calf serum and cultivated for 1 to 2 hours in a CO2 incubator at 37° C. Then, representative test compounds were added in various concentrations, and 15 minutes later, ^14 C-uridine (0.05 μCi/ml) or ^14 C-thymidine (0.05 μCi/ml) were added. The cells were incubated at 37° C. for 60 minutes. A 10% aqueous trichloroacetic acid solution was added to the incubation medium to stop the reaction and simultaneously precipitate acid-insoluble matter. The acid-insoluble matter was washed three times with a 5 to 10% aqueous solution of trichloroacetic acid and then dissolved in formic acid. The radioactivity of the acid-insoluble matter was measured. From the ratio of incorporated radiation to that of a control group, the concentrations which inhibited radiation by 10%, 50% and 90% respectively were measured.

[19] = tested on: L1210 leukemia cells; assay: Inhibitory effect on growth of L1210 cultivated leukemic cells of mice; type: cell-based; details: Mus musculus, RPMI 1640, 20% calf serum, 37° C.
Description: as §2
For example, L1210 cells were inoculated in a concentration of 5×10^4 cells/ml in an RPMI 1640 culture medium (Roswell Park Memorial Institute 1640) containing 20% calf serum and, simultaneously, representative compounds of the present invention were added in a concentration of 0.1 and 0.5 μg/ml. The cells were cultivated in a CO2 generator at 37° C. The 50% growth inhibitory concentration with respect to a control group was then determined.

[20] = tested on: L1210 leukemia cells, RNA synthesis; assay: Inhibition of RNA synthesis (14C-uridine incorporation) of L1210 cultivated leukemic cells; type: cell-based; details: Mus musculus, L1210, 1 h, 14C-uridine, 60 minutes, 37° C.; for IC50: read-out: IC50 RNA synthesis; for IC90: 90% inhibition, read-out: IC90 RNA synthesis
Description: as §2, §3

[21] = tested on: L1210 leukemia cells; assay: Antitumor activity on CDFI mouse leukemia induced by mouse L1210 leukemia cells; type: in vivo, CDFI mice; design: key to Toxicity: *: Toxicity-
Description: B. Antitumor Activity on CDFI Mouse Leukemia Induced by Mouse L1210 Leukemia cells
L1210 leukemia cells of mice were intraperitoneally transplanted in an amount of 1×10^5 cells/mouse in CDFI mice. Starting 24 hours after the transplantation, each of the test compounds was intraperitoneally administered to the mice for 10 consecutive days. the survival rate (T/C, %) was calculated in comparison with a control group (to which physiological saline was administered).

[22] = L1210, 24 h, 1 day later, read-out: IC50 growth, 1 day later
[23] = L1210, 48 h, 2 days later, read-out: IC50 growth, 2 days later
[24] = 0.15 mg/kg/day, intraperitoneal, 10 consecutive days
[25] = 0.3 mg/kg/day, intraperitoneal, 10 consecutive days
[26] = 0.6 mg/kg/day, intraperitoneal, 10 consecutive days
[27] = 1.25 mg/kg/day, intraperitoneal, 10 consecutive days
[28] = 2.5 mg/kg/day, intraperitoneal, 10 consecutive days

## C[C@@H]1O[C@@H](O[C@@H]2C[C@@](O)(C(=O)CO)Cc3cc4c(c(O)c32)C(=O)c2ccccc2C4=O)C[C@H](N)[C@@H]1O (single isomer, unassigned; isomer 4) [4-Demethoxy-11-deoxy-adriamycin (7R,9R,1'α)isomer, 4-Demethoxy-11-deoxyadriamycin]
[1]
  MIC: > 100 µg/mL
[2]
  MIC: > 100 µg/mL
[3]
  MIC: > 100 µg/mL
[4]
  MIC: > 100 µg/mL
[5]
  MIC: > 100 µg/mL
[6]
  MIC: > 100 µg/mL
[7]
  MIC: 100 µg/mL (≈ 201 µM)
[8]
  MIC: > 100 µg/mL
[9]
  MIC: > 100 µg/mL
[10]
  MIC: > 100 µg/mL
[11]
  MIC: > 100 µg/mL
[12]
  MIC: > 100 µg/mL
[13]
  MIC: > 100 µg/mL
[14]
  MIC: > 100 µg/mL
[15]
  MIC: > 100 µg/mL
[16]
  MIC: > 100 µg/mL
[17]
  MIC: > 100 µg/mL
[18]
  IC50: > 10 µg/mL
  IC90: > 10 µg/mL
[19]; [22]
  IC50: 72.5 µg/mL (≈ 146 µM)
[19]; [23]
  IC50: 72.5 µg/mL (≈ 146 µM)
[20]
  IC50: > 10 µg/mL
  IC90: > 10 µg/mL

## C[C@@H]1O[C@@H](O[C@H]2C[C@](O)(C(=O)CO)Cc3cc4c(c(O)c32)C(=O)c2ccccc2C4=O)C[C@H](N)[C@@H]1O (single isomer, unassigned; isomer 4) [4-Demethoxy-11-deoxy-adriamycin (7S,9S,1'α)isomer, 4-Demethoxy-11-deoxyadriamycin]
[1]
  MIC: 12.5 µg/mL (≈ 25.1 µM)
[2]
  MIC: 50 µg/mL (≈ 101 µM)
[3]
  MIC: 12.5 µg/mL (≈ 25.1 µM)
[4]
  MIC: 12.5 µg/mL (≈ 25.1 µM)
[5]
  MIC: 25 µg/mL (≈ 50.3 µM)
[6]
  MIC: 100 µg/mL (≈ 201 µM)
[7]
  MIC: 12.5 µg/mL (≈ 25.1 µM)
[8]
  MIC: > 100 µg/mL
[9]
  MIC: > 100 µg/mL
[10]
  MIC: > 100 µg/mL
[11]
  MIC: > 100 µg/mL
[12]
  MIC: 100 µg/mL (≈ 201 µM)
[13]
  MIC: > 100 µg/mL
[14]
  MIC: 50 µg/mL (≈ 101 µM)
[15]
  MIC: > 100 µg/mL
[16]
  MIC: 100 µg/mL (≈ 201 µM)
[17]
  MIC: 12.5 µg/mL (≈ 25.1 µM)
[18]
  IC50: 0.64 µg/mL (≈ 1.29 µM)
  IC90: 5.6 µg/mL (≈ 11.3 µM)
[21]; [24]
  Survival rate (T/C, %): 135%
[21]; [25]
  Survival rate (T/C, %): 162%
[21]; [26]
  Survival rate (T/C, %): 184%
[21]; [27]
  Survival rate (T/C, %): 308%
[21]; [28]
  Survival rate (T/C, %): 177%
  Toxicity: *
[21]; experimental animal tumors
  antitumor activity on experimental animal tumors (in words): particularly noteworthy
[19]; [22]
  IC50: 0.07 µg/mL (≈ 0.141 µM)
[19]; [23]
  IC50: 0.03 µg/mL (≈ 0.0603 µM)
[20]
  IC50: 0.8 µg/mL (≈ 1.61 µM)
  IC90: 4.6 µg/mL (≈ 9.25 µM)

## CC(=O)[C@]1(O)Cc2cc3c(c(O)c2[C@@H](O[C@H]2C[C@H](N)[C@H](O)[C@H](C)O2)C1)C(=O)c1ccccc1C3=O (single isomer, unassigned; isomer 4) [4-Demethoxy-11-deoxy-daunomycin (7S,9S,1'α)isomer, 4-Demethoxy-11-deoxydaunomycin]
[1]
  MIC: 12.5 µg/mL (≈ 26 µM)
[2]
  MIC: 6.25 µg/mL (≈ 13 µM)
[3]
  MIC: 3.12 µg/mL (≈ 6.48 µM)
[4]
  MIC: 6.25 µg/mL (≈ 13 µM)
[5]
  MIC: 12.5 µg/mL (≈ 26 µM)
[6]
  MIC: 25 µg/mL (≈ 51.9 µM)
[7]
  MIC: 12.5 µg/mL (≈ 26 µM)
[8]
  MIC: > 100 µg/mL
[9]
  MIC: 100 µg/mL (≈ 208 µM)
[10]
  MIC: > 100 µg/mL
[11]
  MIC: > 100 µg/mL
[12]
  MIC: 6.25 µg/mL (≈ 13 µM)
[13]
  MIC: 100 µg/mL (≈ 208 µM)
[14]
  MIC: 12.5 µg/mL (≈ 26 µM)
[15]
  MIC: 100 µg/mL (≈ 208 µM)
[16]
  MIC: 6.25 µg/mL (≈ 13 µM)
[17]
  MIC: 6.25 µg/mL (≈ 13 µM)
[18]
  IC50: 0.22 µg/mL (≈ 0.457 µM)
  IC90: 2.5 µg/mL (≈ 5.19 µM)
[21]; [24]
  Survival rate (T/C, %): 103%
[21]; [25]
  Survival rate (T/C, %): 115%
[21]; [26]
  Survival rate (T/C, %): 115%
[21]; [27]
  Survival rate (T/C, %): 135%
[21]; [28]
  Survival rate (T/C, %): 160%
[19]; [22]
  IC50: 0.09 µg/mL (≈ 0.187 µM)
[19]; [23]
  IC50: 0.01 µg/mL (≈ 0.0208 µM)
[20]
  IC50: 0.34 µg/mL (≈ 0.706 µM)
  IC90: 2.5 µg/mL (≈ 5.19 µM)

## CC(=O)[C@@]1(O)Cc2cc3c(c(O)c2[C@H](O[C@H]2C[C@H](N)[C@H](O)[C@H](C)O2)C1)C(=O)c1ccccc1C3=O (single isomer, unassigned; isomer 4) [4-Demethoxy-11-deoxy-daunomycin (7R,9R,1'α)isomer, 4-Demethoxy-11-deoxydaunomycin]
[1]
  MIC: > 100 µg/mL
[2]
  MIC: > 100 µg/mL
[3]
  MIC: 100 µg/mL (≈ 208 µM)
[4]
  MIC: 50 µg/mL (≈ 104 µM)
[5]
  MIC: 50 µg/mL (≈ 104 µM)
[6]
  MIC: > 100 µg/mL
[7]
  MIC: 100 µg/mL (≈ 208 µM)
[8]
  MIC: > 100 µg/mL
[9]
  MIC: > 100 µg/mL
[10]
  MIC: > 100 µg/mL
[11]
  MIC: > 100 µg/mL
[12]
  MIC: 100 µg/mL (≈ 208 µM)
[13]
  MIC: > 100 µg/mL
[14]
  MIC: > 100 µg/mL
[15]
  MIC: > 100 µg/mL
[16]
  MIC: 50 µg/mL (≈ 104 µM)
[17]
  MIC: 50 µg/mL (≈ 104 µM)
[18]
  IC50: 5.4 µg/mL (≈ 11.2 µM)
  IC90: 13 µg/mL (≈ 27 µM)
[19]; [22]
  IC50: > 2.5 µg/mL
[19]; [23]
  IC50: > 2.5 µg/mL
[20]
  IC50: 9 µg/mL (≈ 18.7 µM)
  IC90: > 10 µg/mL
